The text below walks through data of patent US10336749B2, “Method for the preparation of (4S)-4-(4-cyano-2-methoxyphenyl)-5-ethoxy-2,8-dimethyl-1,4-dihydro-1-6-naphthyridine-3-carboxamide and the purification thereof for use as an active pharmaceutical ingredient” (BAYER PHARMA AKTIENGESELLSCHAFT, priority 2015, dated 2019).

The nature of data set [1]: Stability and moisture absorption: storage at 85% and 97% rel. humidity, evaluated by DSC, TGA and XRPD. In kind it is physicochemical. Conditions: 25° C.; for mass change: after 12 months. Here is the method:
Stability and Moisture Absorption Samples of compound of the formula (I) in crystalline form of polymorph I were stored at 85% and 97% rel. humidity (25° C.). The samples were evaluated after 12 months by DSC, TGA and XRPD. After 12 months, a mass change of <0.1% is observed in both cases. […] According to DSC, TGA and XRPD, no difference exists in compound of the formula (I) in crystalline form of polymorph I.

Data set [2] in a line: Storage stability of crystalline polymorph I. In kind it is physicochemical.
Setting [3] is: 85% and 97% rel. humidity, 12 months.

Some results are limits rather than exact numbers.

For the compound `CCOc1ncc(C)c2c1[C@H](c1ccc(C#N)cc1OC)C(C(N)=O)=C(C)N2` [(4S)-4-(4-Cyano-2-methoxyphenyl)-5-ethoxy-2,8-dimethyl-1,4-dihydro-1,6-naphthyridine-3-carboxamide], in data set [1] (setting [3]), the absorption of water result was “no significant absorption of water”; the “difference according to DSC, TGA and XRPD after storage” value is “no difference”. Besides, in data set [1] (stored at 85% rel. humidity), the mass change was less than 0.1%. In addition, the mass change in data set [1] (stored at 97% rel. humidity) is less than 0.1%. For the same compound, in data set [2] (crystalline form of polymorph I), the “storage time without any problem” value is greater than 2 years. Besides, the stability properties result in data set [2] (even at high atmospheric humidity) was “very good stability properties”.
